Reference: PubChem BioAssay (NCI)
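Grown in 96-well plates, cells were treated for 48 hours with each compound at five concentrations. Insufficient inhibition: endpoint recorded as highest concentration tested. TGI marks complete inhibition of growth.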

How the values were obtained:
Assay in all cases: NCI-60 cell line screen, 48 h
SW-620 colon = system: SW-620 colon
BT-549 breast = system: BT-549 breast
MDA-N = system: MDA-N
NCI-H23 lung = system: NCI-H23 lung
EKVX NSCLC = system: EKVX NSCLC
A549 NSCLC = system: A549 NSCLC
MCF7 breast = system: MCF7 breast
UACC-62 melanoma = system: UACC-62 melanoma
NCI-H226 lung = system: NCI-H226 lung
SK-OV-3 ovarian = system: SK-OV-3 ovarian
ACHN renal = system: ACHN renal
SF-539 CNS = system: SF-539 CNS
RXF 393 renal = system: RXF 393 renal
MDA-MB-435 = system: MDA-MB-435

| SMILES | TGI (SW-620 colon) [µM] | TGI (BT-549 breast) [µM] | TGI (MDA-N) [µM] | TGI (NCI-H23 lung) [µM] | TGI (EKVX NSCLC) [µM] | TGI (A549 NSCLC) [µM] | TGI (MCF7 breast) [µM] | TGI (UACC-62 melanoma) [µM] | TGI (NCI-H226 lung) [µM] | TGI (SK-OV-3 ovarian) [µM] | TGI (ACHN renal) [µM] | TGI (SF-539 CNS) [µM] | TGI (RXF 393 renal) [µM] | TGI (MDA-MB-435) [µM] |
| --- | --- | --- | --- | --- | --- | --- | --- | --- | --- | --- | --- | --- | --- | --- |
| O=C1CC2(CCNCC2)C(=O)N1N1CCCCC1 | > 100 | > 100 | > 100 | > 100 | > 100 | > 100 | > 100 | > 100 | > 100 | > 100 | > 100 | > 100 | > 100 | – |
| O=C1O/C(=C(/Cl)c2c3ccccc3cc3ccccc23)c2ccccc21 | > 100 | – | > 100 | 79.9 | > 100 | > 100 | > 100 | > 100 | 73.6 | > 100 | 82.9 | 47.8 | 96.4 | 58 |
| CN(C)c1cccc(/C=C(\C#N)c2ccccc2)c1 | > 56 | > 100 | 0.161 | 45 | > 100 | > 79.9 | – | > 100 | 24.6 | > 49.9 | > 100 | 4.32 | 4.51 | 0.18 |
| CC(=O)[C@]12OC(=O)C3=C1[C@H](CC[C@@H]3C)[C@@H](C)C[C@H]2C=C(C)C | 15.3 | – | 16.9 | 17.9 | – | 16.8 | 17.2 | 12.6 | 16 | 21.3 | 15.3 | 16.5 | – | 16 |
| Cc1ccccc1C1CC(=O)CC(c2ccccc2C)C12C(=O)NC(=S)NC2=O (configuration not stated) | 90.4 | – | > 100 | > 100 | > 100 | > 100 | > 100 | 38.2 | 44.2 | > 100 | 38.6 | 48.9 | 38.8 | 62.4 |
| COC1=CC(=O)c2c(n[nH]c2CCNC(=O)OCc2ccccc2)C1=O | 36.8 | 32.5 | 4.61 | 15.5 | 32 | 40.4 | 22.2 | 19.9 | – | – | 27.2 | 34.1 | – | 4 |
| COc1ccc2cc(/C=N\NC(=O)Nc3ccc([N+](=O)[O-])cc3)ccc2c1 | > 31.6 | 18.6 | 18.5 | 16.6 | 25 | 18.5 | > 31.6 | 19.2 | – | 18.5 | 19.8 | 18.3 | 16.6 | 25.1 |
| Cn1nc(S(N)(=O)=O)s/c1=N/S(=O)(=O)c1ccc(N)cc1 | > 100 | > 100 | – | > 100 | > 100 | > 100 | – | > 100 | > 100 | > 100 | > 100 | > 100 | > 100 | – |
| O=C(/C=N/O)Nc1ccc(Cl)c(I)c1 | > 100 | – | – | 42.3 | 63.9 | 94 | – | 35.4 | 17.8 | 56 | 85.2 | – | 46.7 | – |
| Cc1ccc(/C=C2\CCCCCC2=O)cc1 | > 100 | > 100 | > 100 | > 100 | > 100 | > 100 | – | > 100 | > 100 | > 100 | > 100 | – | – | > 100 |
| C=CC[C@@]12CCC(=O)C=C1CCCC2=O | > 100 | – | > 100 | > 100 | > 100 | > 100 | > 100 | > 100 | > 100 | > 100 | > 100 | > 100 | > 100 | > 100 |
| Cc1cc(C)nc(NS(=O)(=O)c2ccc(Nc3nnc(/C=C/c4c(O)ccc5ccccc45)c(=O)n3N)cc2)n1 | > 100 | 62.5 | 81.6 | 57.7 | 78.5 | > 100 | 45.7 | 60.1 | – | > 100 | 53.8 | – | 55.3 | 57.6 |
| O=C(NN1C(=O)C(Cl)C1c1cccc(Cl)c1)c1ccccc1O (configuration not stated) | – | – | – | > 100 | – | > 100 | – | > 100 | > 100 | > 100 | > 100 | > 100 | > 100 | – |
| COc1ccc(OC2OC(CO)C(O)C(O)C2O)cc1 (configuration not stated) | > 100 | > 100 | > 100 | > 100 | > 100 | > 100 | > 100 | > 100 | > 100 | > 100 | > 100 | > 100 | – | > 100 |
| CC1CN=C(NS(=O)(=O)c2cc(C(=O)Nc3ccccc3)c(Cl)cc2S)NN1 (configuration not stated) | > 100 | > 100 | 71.5 | > 100 | > 100 | > 100 | > 100 | > 100 | > 100 | > 100 | > 100 | > 100 | – | 52.5 |
| O=[N+]([O-])c1cc(Cl)ccc1S(=O)(=O)c1ccc(Cl)cc1[N+](=O)[O-] | 32.6 | – | – | 29.2 | – | 70 | – | 31 | 25.1 | 29.4 | 29.7 | 32.7 | 29.5 | – |
| C/C(=C(/C)c1cc[n+](C)cc1)c1cc[n+](C)cc1 | – | – | – | > 75 | > 75 | > 75 | – | > 75 | – | > 75 | > 75 | > 75 | > 75 | – |
| O=c1[nH]cc(COCC(O)CO)c(=O)[nH]1 (configuration not stated) | > 100 | – | – | > 100 | > 100 | > 100 | – | > 100 | > 100 | > 100 | > 100 | > 100 | > 100 | – |
| C=C(C)CCN(C(=O)OC(C)(C)C)c1cc(C(C)C)co1 | > 100 | > 100 | > 100 | > 100 | > 100 | > 100 | > 100 | > 100 | > 100 | > 100 | > 100 | > 100 | – | > 100 |
